Measurements from patent US20090053338A1, “Method for the preparation of phytoprogestogenic extracts from rhizoma ligusticum chuanxiong and uses thereof” (priority 2003, published 2009).
Blank lines part the entries; values can stand above or below the compound they belong to.

Assays:
[1] = target: T1, human progesterone receptor (PR-B) (Homo sapiens, UniProt P06401); test: cell-based progesterone reporter gene assay (PR-B + PRE2-TATA-LUC luciferase) in HeLa cells; settings: peak activity at 10 μM
T1 construct: DNA encoding the full length human progesterone receptor (PR-B); expressed in transfected cells; host or cells: HeLa cells
T1 sequence (P06401 1-933): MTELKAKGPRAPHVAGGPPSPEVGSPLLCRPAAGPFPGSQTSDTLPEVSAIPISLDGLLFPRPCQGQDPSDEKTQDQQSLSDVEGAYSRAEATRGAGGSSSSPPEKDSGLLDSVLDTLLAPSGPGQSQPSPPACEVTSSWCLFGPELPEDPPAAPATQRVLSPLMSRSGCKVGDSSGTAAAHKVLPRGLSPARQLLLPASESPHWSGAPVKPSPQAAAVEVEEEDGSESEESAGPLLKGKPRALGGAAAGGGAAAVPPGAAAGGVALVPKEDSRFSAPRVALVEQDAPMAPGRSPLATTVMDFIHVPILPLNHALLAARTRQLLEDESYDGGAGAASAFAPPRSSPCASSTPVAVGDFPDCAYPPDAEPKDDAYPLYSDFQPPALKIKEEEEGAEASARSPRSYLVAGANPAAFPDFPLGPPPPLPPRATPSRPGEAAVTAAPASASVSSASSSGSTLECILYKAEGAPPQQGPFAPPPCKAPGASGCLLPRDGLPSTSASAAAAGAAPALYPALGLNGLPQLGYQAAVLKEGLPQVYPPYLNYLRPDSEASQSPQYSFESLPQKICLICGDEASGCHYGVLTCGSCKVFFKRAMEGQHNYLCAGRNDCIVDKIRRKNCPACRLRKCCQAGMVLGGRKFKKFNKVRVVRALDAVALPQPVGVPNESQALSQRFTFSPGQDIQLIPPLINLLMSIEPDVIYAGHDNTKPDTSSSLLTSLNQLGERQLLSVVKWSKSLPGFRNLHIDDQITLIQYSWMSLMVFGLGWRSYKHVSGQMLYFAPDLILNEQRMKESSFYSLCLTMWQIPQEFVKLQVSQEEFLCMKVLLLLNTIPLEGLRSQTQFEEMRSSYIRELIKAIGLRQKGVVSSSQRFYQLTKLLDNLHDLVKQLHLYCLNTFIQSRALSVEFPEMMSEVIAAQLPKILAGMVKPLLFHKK
Excerpt: In the progestogen receptor assay of the invention, HeLa cells grown in 24-well microtiter plates were transiently co-transfected with two plasmids using lipofectamine. The first plasmid consisted of DNA encoding the full length human progesterone receptor (PR-B), and the second a progesterone reporter gene (PRE2-TATA-LUC) comprising a luciferase reporter gene driven by two copies of the progesterone response element from the aminotransferase gene. […] Replicate wells were exposed to vehicle only (ethanol) and used as negative controls. After the period of incubation, cells were rinsed with PBS buffer, lysis buffer (Promega Corp) was added, and cell lysates collected for measurement of luciferase activity. Progestogenic activity of the ligands was expressed as fold-increase in luciferase activity compared with control cells exposed to vehicle only. All data points were in triplicate. […] To begin the search for phyto-progestogens in Traditional Chinese herbal medicines, The Pharmacopoeia of the People's Republic of China (1997) was consulted and 13 herbs reported to have “uterotonic activity” were selected for screening. […] The herbal residues were re-extracted a second time with the same solvent for 2-3 hours. […] Dried extracts were weighed and re-suspended in 100% ethanol or methanol to a concentration 50 mg/ml.

[2] = test system: male Sprague-Dawley rats; settings: subcutaneous; MPA 10 mg
Excerpt: Each data point is the Mean±SEM of samples obtained from 6 different rats. Bars indicate progestogenic activity of original MPA and L.C. extract in-vitro. Progestogenic activity is expressed as fold increase compared to cells exposed to vehicle only.

[3] = test system: male Sprague-Dawley rats
Protocol: Sprague-Dawley rats were fasted overnight. Two mls of L.C. (2 g), MPA (10 mg) and vehicle (60% Ethanol) were orally fed to male rats using gavage tubes. Serum samples were collected from the tail vein at indicated time points, before and after L.C. administration. Bioactive progestogens were extracted from serum and tested for progestogenic activity using our receptor-based bioassay. Each data point is the Mean±SEM of samples obtained from 6 different rats. Bars indicate progestogenic activity of original MPA and L.C. extract in-vitro. Progestogenic activity is expressed as fold increase compared to cells exposed to vehicle only.
To determine the pharmacokinetics and bioequivalence of LC, we measured the progestogenic effect of rat serum sampled at defined time points after oral doses of LC (2 g/2 ml), MPA (10 mg/2 ml), and vehicle only (2 ml 60% ethanol). Serum samples were extracted and progesterone effect measured as in Example 12.

[4] = test system: patients with acute cerebral infarction; settings: cited from earlier work
[5] = test system: subjects with transient ischemic attack; settings: cited from earlier work

increase in hormonal activity over controls exposed to vehicle only at peak activity [1]: 300 fold
Compound: CC(=O)[C@H]1CC[C@H]2[C@@H]3CCC4=CC(=O)CC[C@]4(C)[C@H]3CC[C@]12C [progesterone]

increase in hormonal activity over controls exposed to vehicle only at peak activity [1]: 300 fold
Compound: CC(=O)O[C@]1(C(C)=O)CC[C@H]2[C@@H]3C=C(C)C4=CC(=O)CC[C@]4(C)[C@H]3CC[C@@]21C [megesterol acetate]

Compound: CC(=O)O[C@]1(C(C)=O)CC[C@H]2[C@@H]3C[C@H](C)C4=CC(=O)CC[C@]4(C)[C@H]3CC[C@@]21C [MPA, 6α-methyl-17α-hydroxy-progesterone acetate]
peak progestogenic activity versus serum from rats administered vehicle only [2]: about 5 fold | maintenance of peak / high levels of progestogenic effect ([3]; male, Sprague-Dawley, rat, in vivo, po): maintained throughout the 24 hour of sampling | peak progesterone activity in words ([3]; oral): comparable to that observed with saturating doses of progesterone in-vitro | serum activity versus baseline of rats administered vehicle only ([3]; oral, MPA 10 mg/2 ml): about 5 fold

Compound: dextran 40
total therapeutic efficacy rate [4]: 62.8%

Compound: CC(=O)Oc1ccccc1C(=O)O [aspirin]
total effective rate [5]: 61.7%
